Consider seven compounds from patent US9340590B2 (priority 2011, dated 2016).

Positions of bridges follow the written chain, without caps; N, C: chain ends. Non-standard residues stand in square brackets, D forms with d. Residues, ends and D or L forms follow the SMILES beside them. Gly(octyl) = CCCCCCCC[C@H](N)C(=O)O; 3Pal = N[C@@H](Cc1cccnc1)C(=O)O; 2Thi = N[C@@H](Cc1cccs1)C(=O)O; Tle = CC(C)(C)[C@H](N)C(=O)O; hLeu = CC(C)CC[C@H](N)C(=O)O

Assay in all cases: cell-based
One assay concerns the target hNav1.5 (Homo sapiens, UniProt Q14524). The conditions noted are these: IonWorks Quattro, use-dependent block, hNav1.5; read-out: IWQ Use Nav1.5. For orientation: In patch-clamp work, channel activity is measured electrically.
Another assay has as its target hNav1.3 (Homo sapiens, UniProt Q9NY46). The note with it: IonWorks Quattro, use-dependent block, hNav1.3; read-out: IWQ Use Nav1.3.
The next assay addresses hNav1.7 (Homo sapiens, UniProt Q15858). It counts as cell-based. The note with it: IonWorks Quattro, use-dependent block, hNav1.7; read-out: IWQ Use Nav1.7.

Sequence of hNav1.3 (Q9NY46 whole entry, looked up): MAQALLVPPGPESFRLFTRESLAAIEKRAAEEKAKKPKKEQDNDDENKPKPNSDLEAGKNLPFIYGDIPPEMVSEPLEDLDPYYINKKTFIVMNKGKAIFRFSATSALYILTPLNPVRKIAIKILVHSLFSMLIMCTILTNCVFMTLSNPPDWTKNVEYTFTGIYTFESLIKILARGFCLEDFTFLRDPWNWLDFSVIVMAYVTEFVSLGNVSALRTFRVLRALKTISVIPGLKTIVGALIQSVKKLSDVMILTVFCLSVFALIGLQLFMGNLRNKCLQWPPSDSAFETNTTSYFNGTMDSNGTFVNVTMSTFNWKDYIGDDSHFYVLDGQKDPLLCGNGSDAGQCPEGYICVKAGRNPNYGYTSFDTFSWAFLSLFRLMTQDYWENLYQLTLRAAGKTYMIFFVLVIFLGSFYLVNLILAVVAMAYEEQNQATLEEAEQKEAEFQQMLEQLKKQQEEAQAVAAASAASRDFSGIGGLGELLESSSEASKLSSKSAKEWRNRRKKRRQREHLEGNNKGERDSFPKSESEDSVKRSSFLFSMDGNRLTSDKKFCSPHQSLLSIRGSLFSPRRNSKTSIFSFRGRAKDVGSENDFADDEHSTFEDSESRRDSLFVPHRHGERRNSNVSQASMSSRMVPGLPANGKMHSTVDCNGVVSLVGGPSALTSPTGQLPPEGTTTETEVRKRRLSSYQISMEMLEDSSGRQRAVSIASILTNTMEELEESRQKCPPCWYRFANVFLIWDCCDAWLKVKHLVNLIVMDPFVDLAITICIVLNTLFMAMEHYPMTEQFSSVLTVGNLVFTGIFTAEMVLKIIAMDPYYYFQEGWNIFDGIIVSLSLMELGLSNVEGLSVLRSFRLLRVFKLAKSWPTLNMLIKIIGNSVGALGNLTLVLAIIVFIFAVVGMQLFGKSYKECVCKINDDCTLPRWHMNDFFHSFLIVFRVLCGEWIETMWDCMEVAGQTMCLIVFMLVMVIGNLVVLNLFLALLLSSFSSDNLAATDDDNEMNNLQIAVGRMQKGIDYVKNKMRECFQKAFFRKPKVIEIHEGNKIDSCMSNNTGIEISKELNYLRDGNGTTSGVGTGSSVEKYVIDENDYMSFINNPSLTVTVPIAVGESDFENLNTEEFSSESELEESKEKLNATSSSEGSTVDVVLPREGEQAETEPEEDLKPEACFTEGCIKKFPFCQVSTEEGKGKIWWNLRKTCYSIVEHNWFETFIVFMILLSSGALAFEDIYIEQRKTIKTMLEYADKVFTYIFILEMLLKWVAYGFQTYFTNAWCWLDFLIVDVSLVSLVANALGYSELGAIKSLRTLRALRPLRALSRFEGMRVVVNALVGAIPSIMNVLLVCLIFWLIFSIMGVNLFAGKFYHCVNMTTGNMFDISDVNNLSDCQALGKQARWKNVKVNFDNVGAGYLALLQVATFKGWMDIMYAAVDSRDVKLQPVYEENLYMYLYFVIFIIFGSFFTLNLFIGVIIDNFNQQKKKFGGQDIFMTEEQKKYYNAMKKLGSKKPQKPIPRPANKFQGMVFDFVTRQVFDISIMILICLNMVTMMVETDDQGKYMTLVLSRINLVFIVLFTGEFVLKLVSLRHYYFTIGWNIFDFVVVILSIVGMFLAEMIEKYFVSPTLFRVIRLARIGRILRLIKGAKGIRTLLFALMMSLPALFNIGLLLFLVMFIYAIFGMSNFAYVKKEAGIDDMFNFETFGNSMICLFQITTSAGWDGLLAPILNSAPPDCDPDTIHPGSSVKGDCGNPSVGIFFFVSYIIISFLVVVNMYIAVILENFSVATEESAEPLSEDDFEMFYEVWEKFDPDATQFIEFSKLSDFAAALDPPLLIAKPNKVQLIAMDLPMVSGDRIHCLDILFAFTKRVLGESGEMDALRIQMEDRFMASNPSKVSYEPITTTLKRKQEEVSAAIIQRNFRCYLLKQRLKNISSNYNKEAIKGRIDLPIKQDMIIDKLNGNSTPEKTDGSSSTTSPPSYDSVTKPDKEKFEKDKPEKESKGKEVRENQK
Sequence of hNav1.5 (Q14524 whole entry, looked up): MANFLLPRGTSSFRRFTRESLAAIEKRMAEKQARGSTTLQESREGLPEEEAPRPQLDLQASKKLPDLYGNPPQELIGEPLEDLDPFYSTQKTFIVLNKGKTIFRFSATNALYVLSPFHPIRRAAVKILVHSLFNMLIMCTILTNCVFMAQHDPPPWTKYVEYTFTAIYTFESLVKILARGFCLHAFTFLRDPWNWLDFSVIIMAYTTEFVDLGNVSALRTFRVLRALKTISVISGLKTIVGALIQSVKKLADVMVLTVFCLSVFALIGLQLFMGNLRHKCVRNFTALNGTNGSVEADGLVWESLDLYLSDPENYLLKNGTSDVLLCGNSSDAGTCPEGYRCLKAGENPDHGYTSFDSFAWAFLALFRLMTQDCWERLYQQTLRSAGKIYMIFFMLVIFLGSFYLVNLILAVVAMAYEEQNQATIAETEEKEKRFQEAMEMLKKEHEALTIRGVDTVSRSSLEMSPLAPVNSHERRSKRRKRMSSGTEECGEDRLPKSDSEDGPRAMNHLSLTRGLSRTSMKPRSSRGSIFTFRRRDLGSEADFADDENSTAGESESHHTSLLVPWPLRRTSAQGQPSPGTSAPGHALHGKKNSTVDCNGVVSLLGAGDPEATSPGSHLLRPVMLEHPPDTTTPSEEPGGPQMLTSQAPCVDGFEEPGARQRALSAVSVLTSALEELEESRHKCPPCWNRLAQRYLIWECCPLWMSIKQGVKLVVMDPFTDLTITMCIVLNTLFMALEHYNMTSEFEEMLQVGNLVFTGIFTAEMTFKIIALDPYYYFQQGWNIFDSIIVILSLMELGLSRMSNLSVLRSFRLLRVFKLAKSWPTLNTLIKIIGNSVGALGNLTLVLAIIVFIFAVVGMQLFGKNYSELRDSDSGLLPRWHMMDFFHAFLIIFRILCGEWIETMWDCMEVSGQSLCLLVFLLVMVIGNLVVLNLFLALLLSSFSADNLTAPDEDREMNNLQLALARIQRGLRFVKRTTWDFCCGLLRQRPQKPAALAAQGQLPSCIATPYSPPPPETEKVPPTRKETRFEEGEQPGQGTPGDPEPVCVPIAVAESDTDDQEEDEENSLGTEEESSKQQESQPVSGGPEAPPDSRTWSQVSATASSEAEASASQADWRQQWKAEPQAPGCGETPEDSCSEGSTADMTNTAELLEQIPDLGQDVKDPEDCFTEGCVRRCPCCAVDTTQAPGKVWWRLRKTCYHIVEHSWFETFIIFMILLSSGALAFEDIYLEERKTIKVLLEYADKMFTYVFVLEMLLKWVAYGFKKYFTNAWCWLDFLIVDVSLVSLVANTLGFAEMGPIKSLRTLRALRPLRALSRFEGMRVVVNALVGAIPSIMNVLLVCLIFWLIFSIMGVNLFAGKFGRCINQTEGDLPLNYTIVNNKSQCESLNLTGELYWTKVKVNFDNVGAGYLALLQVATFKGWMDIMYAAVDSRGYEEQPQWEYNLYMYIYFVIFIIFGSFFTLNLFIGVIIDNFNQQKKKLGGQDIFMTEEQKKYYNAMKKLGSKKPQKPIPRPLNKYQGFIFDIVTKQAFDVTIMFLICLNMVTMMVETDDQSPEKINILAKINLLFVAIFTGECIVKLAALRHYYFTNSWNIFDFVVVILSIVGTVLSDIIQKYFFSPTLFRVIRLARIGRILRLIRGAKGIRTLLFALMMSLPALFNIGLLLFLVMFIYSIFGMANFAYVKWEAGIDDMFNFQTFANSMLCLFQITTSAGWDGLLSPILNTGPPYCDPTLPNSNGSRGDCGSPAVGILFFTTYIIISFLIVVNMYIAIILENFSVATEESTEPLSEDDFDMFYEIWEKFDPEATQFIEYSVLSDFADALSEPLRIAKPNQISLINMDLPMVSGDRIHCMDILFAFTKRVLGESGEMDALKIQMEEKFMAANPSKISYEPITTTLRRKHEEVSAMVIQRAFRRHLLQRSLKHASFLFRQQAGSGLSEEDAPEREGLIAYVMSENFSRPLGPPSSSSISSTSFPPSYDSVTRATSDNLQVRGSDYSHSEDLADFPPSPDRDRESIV

For `CCCCCCCC[C@@H]1NC(=O)CNC(=O)[C@H](CC(C)C)NC(=O)[C@@H](NC(=O)[C@@H](N)CC(=O)O)CSSC[C@@H]2NC(=O)[C@@H]3CSSC[C@@H](C(=O)N[C@@H](CCCCN)C(=O)N[C@@H](Cc4ccc(O)cc4)C(=O)N[C@H](C(=O)N[C@@H](Cc4ccccc4)C(N)=O)C(C)C)NC(=O)[C@H](Cc4c[nH]c5ccccc45)NC(=O)[C@H](CCCCN)NC(=O)[C@H](Cc4c[nH]cn4)NC(=O)[C@H]([C@@H](C)O)NC(=O)[C@H](CCCNC(=N)N)NC(=O)[C@H](CO)NC(=O)[C@H](CSSC[C@H](NC(=O)[C@H](CCCCN)NC(=O)[C@H](CCCNC(=N)N)NC(=O)[C@H](Cc4ccccc4)NC1=O)C(=O)N[C@@H]([C@@H](C)CC)C(=O)N1CCC[C@H]1C(=O)N[C@@H](CC(=O)O)C(=O)N[C@@H](CC(N)=O)C(=O)N[C@@H](CC(=O)O)C(=O)N[C@@H](CCCCN)C(=O)N3)NC(=O)[C@H](C(C)C)NC(=O)[C@H](CC(C)C)NC(=O)[C@H](CC(N)=O)NC(=O)[C@@H]1CCCN1C(=O)[C@H](CCCNC(=N)N)NC2=O` [compound 608] (H-DCLG[Gly(octyl)]FRKCIPDNDKCCRPNLVCSRTHKWCKYVF-NH2; disulfide 2-17, 9-23, 16-30), the IC50 at hNav1.5 was 20200 nM; on hNav1.3 it was 21800 nM; on hNav1.7, 11300 nM.
The like results for `CC[C@H](C)[C@@H]1NC(=O)[C@@H]2CSSC[C@@H]3NC(=O)[C@H](C(C)C)NC(=O)[C@H](CC(C)C)NC(=O)[C@H](CC(N)=O)NC(=O)[C@@H]4CCCN4C(=O)[C@H](CCCNC(=N)N)NC(=O)[C@H](CSSC[C@H](NC(=O)[C@@H](N)CC(=O)O)C(=O)N[C@@H](CC(C)C)C(=O)NCC(=O)N[C@@H](C(C)(C)C)C(=O)N[C@@H](Cc4ccccc4)C(=O)N[C@@H](CCCNC(=N)N)C(=O)N[C@@H](CCCCN)C(=O)N2)NC(=O)[C@H](CSSC[C@@H](C(=O)N[C@@H](CCCCN)C(=O)N[C@@H](Cc2ccc(O)cc2)C(=O)N[C@H](C(=O)N[C@@H](Cc2ccccc2)C(N)=O)C(C)C)NC(=O)[C@H](Cc2c[nH]c4ccccc24)NC(=O)[C@H](CCCCN)NC(=O)[C@H](Cc2c[nH]cn2)NC(=O)[C@H]([C@@H](C)O)NC(=O)[C@H](CCCNC(=N)N)NC(=O)[C@H](CO)NC3=O)NC(=O)[C@H](CCCCN)NC(=O)[C@H](CC(=O)O)NC(=O)[C@H](CC(N)=O)NC(=O)[C@H](CC(=O)O)NC(=O)[C@@H]2CCCN2C1=O` [compound 609] (H-DCLG[Tle]FRKCIPDNDKCCRPNLVCSRTHKWCKYVF-NH2; disulfide 2-17, 9-23, 16-30) were, in that order, 6700 nM, 260 nM and 81 nM.
The like results for `CC[C@H](C)[C@@H]1NC(=O)[C@@H]2CSSC[C@@H]3NC(=O)[C@H](C(C)C)NC(=O)[C@H](CC(C)C)NC(=O)[C@H](CC(N)=O)NC(=O)[C@@H]4CCCN4C(=O)[C@H](CCCNC(=N)N)NC(=O)[C@H](CSSC[C@H](NC(=O)[C@@H](N)CC(=O)O)C(=O)N[C@@H](CC(C)C)C(=O)NCC(=O)N[C@@H](CCC(C)C)C(=O)N[C@@H](Cc4ccccc4)C(=O)N[C@@H](CCCNC(=N)N)C(=O)N[C@@H](CCCCN)C(=O)N2)NC(=O)[C@H](CSSC[C@@H](C(=O)N[C@@H](CCCCN)C(=O)N[C@@H](Cc2ccc(O)cc2)C(=O)N[C@H](C(=O)N[C@@H](Cc2ccccc2)C(N)=O)C(C)C)NC(=O)[C@H](Cc2c[nH]c4ccccc24)NC(=O)[C@H](CCCCN)NC(=O)[C@H](Cc2c[nH]cn2)NC(=O)[C@H]([C@@H](C)O)NC(=O)[C@H](CCCNC(=N)N)NC(=O)[C@H](CO)NC3=O)NC(=O)[C@H](CCCCN)NC(=O)[C@H](CC(=O)O)NC(=O)[C@H](CC(N)=O)NC(=O)[C@H](CC(=O)O)NC(=O)[C@@H]2CCCN2C1=O` [compound 610] (H-DCLG[hLeu]FRKCIPDNDKCCRPNLVCSRTHKWCKYVF-NH2; disulfide 2-17, 9-23, 16-30) were, in that order, 8200 nM, 41 nM and 11 nM.
The like results for `CC[C@H](C)[C@@H]1NC(=O)[C@@H]2CSSC[C@@H]3NC(=O)[C@H](C(C)C)NC(=O)[C@H](CC(C)C)NC(=O)[C@H](CC(N)=O)NC(=O)[C@@H]4CCCN4C(=O)[C@H](CCCNC(=N)N)NC(=O)[C@H](CSSC[C@H](NC(=O)[C@@H](N)CC(=O)O)C(=O)N[C@@H](CC(C)C)C(=O)NCC(=O)N[C@@H](CCSC)C(=O)N[C@@H](Cc4ccccc4)C(=O)N[C@@H](CCCNC(=N)N)C(=O)N[C@@H](CCCCN)C(=O)N2)NC(=O)[C@H](CSSC[C@@H](C(=O)N[C@@H](CCCCN)C(=O)N[C@@H](Cc2ccc(O)cc2)C(=O)N[C@H](C(=O)N[C@@H](Cc2ccccc2)C(N)=O)C(C)C)NC(=O)[C@H](Cc2c[nH]c4ccccc24)NC(=O)[C@H](CCCCN)NC(=O)[C@H](Cc2c[nH]cn2)NC(=O)[C@H]([C@@H](C)O)NC(=O)[C@H](CCCNC(=N)N)NC(=O)[C@H](CO)NC3=O)NC(=O)[C@H](CCCCN)NC(=O)[C@H](CC(=O)O)NC(=O)[C@H](CC(N)=O)NC(=O)[C@H](CC(=O)O)NC(=O)[C@@H]2CCCN2C1=O` [compound 611] (H-DCLGMFRKCIPDNDKCCRPNLVCSRTHKWCKYVF-NH2; disulfide 2-17, 9-23, 16-30) were, in that order, 13300 nM, 110 nM and 43 nM.
As to `CC[C@H](C)[C@@H]1NC(=O)[C@@H]2CSSC[C@@H]3NC(=O)[C@H](C(C)C)NC(=O)[C@H](CC(C)C)NC(=O)[C@H](CC(N)=O)NC(=O)[C@@H]4CCCN4C(=O)[C@H](CCCNC(=N)N)NC(=O)[C@H](CSSC[C@H](NC(=O)[C@@H](N)CC(=O)O)C(=O)N[C@@H](CC(C)C)C(=O)NCC(=O)N[C@@H](CC(C)C)C(=O)N[C@@H](Cc4ccccc4)C(=O)N[C@@H](CCCNC(=N)N)C(=O)N[C@@H](CCCCN)C(=O)N2)NC(=O)[C@H](CSSC[C@@H](C(=O)N[C@@H](CCCCN)C(=O)N[C@@H](Cc2ccc(O)cc2)C(=O)N[C@H](C(=O)N[C@@H](Cc2ccccc2)C(N)=O)C(C)C)NC(=O)[C@H](Cc2c[nH]c4ccccc24)NC(=O)[C@H](CCCCN)NC(=O)[C@H](Cc2c[nH]cn2)NC(=O)[C@H]([C@@H](C)O)NC(=O)[C@H](CCCNC(=N)N)NC(=O)[C@H](CO)NC3=O)NC(=O)[C@H](CCCCN)NC(=O)[C@H](CC(=O)O)NC(=O)[C@H](CC(N)=O)NC(=O)[C@H](CC(=O)O)NC(=O)[C@@H]2CCCN2C1=O` [compound 612] (H-DCLGLFRKCIPDNDKCCRPNLVCSRTHKWCKYVF-NH2; disulfide 2-17, 9-23, 16-30), the IC50 at hNav1.5 came to 20100 nM; at hNav1.3, 220 nM; on hNav1.7, 57 nM.
The like results for `CC[C@H](C)[C@@H]1NC(=O)[C@@H]2CSSC[C@@H]3NC(=O)[C@H](C(C)C)NC(=O)[C@H](CC(C)C)NC(=O)[C@H](CC(N)=O)NC(=O)[C@@H]4CCCN4C(=O)[C@H](CCCNC(=N)N)NC(=O)[C@H](CSSC[C@H](NC(=O)[C@@H](N)CC(=O)O)C(=O)N[C@@H](CC(C)C)C(=O)NCC(=O)N[C@@H](Cc4cccnc4)C(=O)N[C@@H](Cc4ccccc4)C(=O)N[C@@H](CCCNC(=N)N)C(=O)N[C@@H](CCCCN)C(=O)N2)NC(=O)[C@H](CSSC[C@@H](C(=O)N[C@@H](CCCCN)C(=O)N[C@@H](Cc2ccc(O)cc2)C(=O)N[C@H](C(=O)N[C@@H](Cc2ccccc2)C(N)=O)C(C)C)NC(=O)[C@H](Cc2c[nH]c4ccccc24)NC(=O)[C@H](CCCCN)NC(=O)[C@H](Cc2c[nH]cn2)NC(=O)[C@H]([C@@H](C)O)NC(=O)[C@H](CCCNC(=N)N)NC(=O)[C@H](CO)NC3=O)NC(=O)[C@H](CCCCN)NC(=O)[C@H](CC(=O)O)NC(=O)[C@H](CC(N)=O)NC(=O)[C@H](CC(=O)O)NC(=O)[C@@H]2CCCN2C1=O` [compound 613] (H-DCLG[3Pal]FRKCIPDNDKCCRPNLVCSRTHKWCKYVF-NH2; disulfide 2-17, 9-23, 16-30) were, in that order, 18700 nM, 3600 nM and 950 nM.
The like results for `CC[C@H](C)[C@@H]1NC(=O)[C@@H]2CSSC[C@@H]3NC(=O)[C@H](C(C)C)NC(=O)[C@H](CC(C)C)NC(=O)[C@H](CC(N)=O)NC(=O)[C@@H]4CCCN4C(=O)[C@H](CCCNC(=N)N)NC(=O)[C@H](CSSC[C@H](NC(=O)[C@@H](N)CC(=O)O)C(=O)N[C@@H](CC(C)C)C(=O)NCC(=O)N[C@@H](Cc4cccs4)C(=O)N[C@@H](Cc4ccccc4)C(=O)N[C@@H](CCCNC(=N)N)C(=O)N[C@@H](CCCCN)C(=O)N2)NC(=O)[C@H](CSSC[C@@H](C(=O)N[C@@H](CCCCN)C(=O)N[C@@H](Cc2ccc(O)cc2)C(=O)N[C@H](C(=O)N[C@@H](Cc2ccccc2)C(N)=O)C(C)C)NC(=O)[C@H](Cc2c[nH]c4ccccc24)NC(=O)[C@H](CCCCN)NC(=O)[C@H](Cc2c[nH]cn2)NC(=O)[C@H]([C@@H](C)O)NC(=O)[C@H](CCCNC(=N)N)NC(=O)[C@H](CO)NC3=O)NC(=O)[C@H](CCCCN)NC(=O)[C@H](CC(=O)O)NC(=O)[C@H](CC(N)=O)NC(=O)[C@H](CC(=O)O)NC(=O)[C@@H]2CCCN2C1=O` [compound 614] (H-DCLG[2Thi]FRKCIPDNDKCCRPNLVCSRTHKWCKYVF-NH2; disulfide 2-17, 9-23, 16-30) were, in that order, 4100 nM, 77 nM and 12 nM.
